Test results from patent US12589143B2, “Human anti-PD-L1 peptide vaccines and methods of their use” (priority 2019, dated 2026).
Several values for one entry are separate records, joined by “and”; a condition that tells them apart may be missing. Equal values may be shown once. Where no end group is shown, it is not given here.

How the values were obtained:
[1] = test system: MVF-PD-L1 peptide immunogen; assay: Immunogenicity in Balb/c mice, experiment 2 (CT26/HER-2): ELISA of sera vs each MVF-PD-L1 peptide immunogen; format: in vivo
Experimental: Immunogenicity of MVF-PD-L1 B-cell epitopes. New Zealand White rabbits were immunized with 1 mg of each MVF-peptide immunogens dissolved in dd H2O emulsified (1:1) in Montanide ISA 720 vehicle (Seppic) with 333 μg of N-acetylglucosamine-3yl-acetyl-1-alanyl-d-isoglutamine (nor-MDP). Rabbits were boosted with the same doses at 3-week's intervals. Blood was collected via the central auricular artery in rabbits. Blood was collected weekly (1Y+3, 2Y+1, 2Y+2,2Y+3, 3Y+1, 3Y+2 and sera tested for antibody titers by ELISA using the immunogens MVF-PD-L1 peptides. Sera (terminal) from rabbit (3Y+3) immunized with MVF-PD-1 peptide immunogens were tested individually versus the immunogen by ELISA. 200 ng/well peptide were used in duplicates to coat the ELISA plates. Titers are defined as the highest dilution of sera with an absorbance value of 0.2 after subtracting the blank. […]
In order to verify the efficacy of the PD-L1 epitope vaccines in vivo in the CT26/HER-2 carcinoma cell line, Balb/c mice (10 mice/group) were immunized with 100 μg each of MVF-PD-L1 (36-53), MVF-PD-L1 (50-67), MVF-PD-L1 (95-112) and MVF-PD-L1 (130-147) emulsified with nor-MDP and Montanide 720 (1:1 ratio) SCHEME 2A (FIG. 15A). As detailed in SCHEME 2A-D (FIGS. 15A, 15B, 15C, and 15D), mice were immunized 3 times at 3 weeks intervals. […] All PD-L1 epitopes elicited high titers of PD-L1 anti-peptide antibodies by ELISA. […] We also investigated the combination of PD-1(92-110) with PD-L1-95.
For each peptide, vaccine antibodies were raised in New Zealand white rabbits, purchased from Charles River Laboratories (Wilmington, MA, USA). Rabbits were immunized with 1 mg of MVF chimeric peptide emulsified in Montanide ISA 720 (Seppic, Paris, France) and boosted 3 times at three week intervals. For mouse experiments, mice, 6-8 weeks old, were immunized with 0.1 mg of peptide emulsified in ISA720 (1:1 ratio). Mice were boosted with the respective doses at 3-week intervals. Blood was then collected and sera were tested for antibody titers. Sera were collected weekly and peptide vaccine antibodies were purified by affinity chromatography using a protein A/G column and the concentration was measured using Spectrophometer. All experiments were performed in accordance with the U.S. Public Health Service Policy on Humane Care and Use of Laboratory animals and approved by the Ohio State University Institutional Animals Care and Use Committee, detailed in the accepted protocol.
6-8 weeks old BALB/c mice (Charles River, Wilmington, MA) were used as standard animal models. Mouse CT26 colon carcinoma cell line was purchased from American Type Culture Collection Cells and were regularly cultured in RPMI1640 medium containing 10% FBS. CT26/HER2 cells were kindly provided by M. Penichet. Vaccines were dissolved in sterile water and emulsified in Montanide ISA 720 (1:1). Female Balb/c mice (Charles River Laboratories) at the age of 6-8 weeks were immunized three times at 3-week intervals with 100 μg of each peptide vaccine, and 2 weeks after the third immunization, the mice were challenged with CT26 and/or CT26/HER-2 tumor cells, which were implanted subcutaneously (s.c) on the right flank (1×10^5 per mouse). 200 μg of rat α-mouse PD-L1 mAb 10F.9G2 (Bio X Cell, West Lebanon, NH) were administered intraperitoneally (i.p.), twice weekly following tumor inoculation in the control group. Mice were monitored and scored for the formation of palpable tumors on a daily basis and sacrificed if tumors became necrotic or exceeded the predetermined size of 2,000 mm^3. Tumor volumes were measured in cubic millimeters with calipers and calculated with the following formula: A×B^2×0.5, where A is the largest diameter, and B is the widest point perpendicular to length. During immunization, blood was drawn weekly and used in ELISA to monitor antibody titers.

[2] = target: T1, PD-1/PD-L1 interaction (Homo sapiens, UniProt Q9NZQ7); assay: PD-1/PD-L1 blockade bioassay (Promega); format: cell-based; conditions: antibodies from immunized rabbits, compared to Nivolumab and Atezolizumab
T1 construct: host or cells: PD-L1 aAPC/CHO-K1 cells and PD-1 effector cells
Experimental: The assay was performed following the manufacturer's protocol for the PD-1/PD-L1 blockade bioassay (Promega).
The bioluminescent cell-based PD-1/PD-L1 blockade bioassays provide a good option for rapid screening of therapeutic antibodies or other compounds developed to interfere with PD-1-signaling interaction. PD1/PD-L1 blockade assay was used to test the functionality of 3 anti-PD-L1 antibodies. It was observed that purified polyclonal anti-PD-L1 antibody from the rabbits was able to block PD1/PD-L1 interaction similar to commercial anti-human PD-L1 antibody (FIG. 12). […] In FIG. 12, we show the capacity of each of the PD-L1 vaccines to block the PD-1:PD-L1 interaction as compared to Nivolumab and Atezolizumab. Remarkably only PD-L1 130-147 antibodies were effective
The assay was performed following the manufacturer's protocol for the PD-1/PD-L1 blockade bioassay (Promega). In brief, 4×10^5 aAPC/CHO-K1 or PD-L1 aAPC/CHO-K1 cells were seeded into 96-well plates in RPMI-1640 with 10% FBS. After overnight culturing, the medium was aspirated, and serially diluted purified PD-L1 or PD-1 antibodies, as well as Nivolumab and Atezolizumab antibodies (as reference antibodies) were added. Next, PD-1 effector cells were co-cultured and plate was kept for 5 h at 37° C. in a humidified 5% CO2 incubator. Following mixing with Bio-Glo Reagent, the luminescence was measured with a luminescence plate reader, SpectraMax M3 plate reader (Molecular Devices).

T1 sequence (Q9NZQ7 19-290): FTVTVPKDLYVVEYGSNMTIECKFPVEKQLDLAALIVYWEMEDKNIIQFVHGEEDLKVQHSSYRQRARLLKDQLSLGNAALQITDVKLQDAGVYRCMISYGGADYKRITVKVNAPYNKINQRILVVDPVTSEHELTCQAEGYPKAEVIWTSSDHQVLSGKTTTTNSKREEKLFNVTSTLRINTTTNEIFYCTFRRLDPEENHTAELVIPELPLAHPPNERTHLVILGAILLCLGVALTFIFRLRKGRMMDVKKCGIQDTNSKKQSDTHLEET

## KLLSLIKGVIVHRLEGVEGPSLVTSEHELTCQAEGYPKAE (KLLSLIKGVIVHRLEGVEGPSLVTSEHELTCQAEGYPKAE-NH2) [PD-L1(130)]
[1]; bleed 1Y + 3, (1to100)
  Immunogenicity (titers) 1′ Conc. 1:: 1600
[1]; bleed 1Y + 3, (1to100), dilution 800, duplicate wells
  ELISA plate reading of serum: 0.449 and 0.439
[1]; bleed 1Y + 3, (1to100), dilution 1,600, duplicate wells
  ELISA plate reading of serum: 0.262 and 0.245
[1]; bleed 1Y + 3, (1to100), dilution 6,400, duplicate wells
  ELISA plate reading of serum: 0.072 and 0.050
[1]; bleed 1Y + 3, (1to100), dilution 12,800, duplicate wells
  ELISA plate reading of serum: 0.040 and 0.030
[1]; bleed 1Y + 3, (1to100), dilution row 100, duplicate wells
  ELISA plate reading of serum: 1.023 and 1.039
[1]; bleed 1Y + 3, (1to100), dilution row 200, duplicate wells
  ELISA plate reading of serum: 0.861 and 0.849
[1]; bleed 1Y + 3, (1to100), dilution row 400, duplicate wells
  ELISA plate reading of serum: 0.671 and 0.672
[1]; bleed 1Y + 3, (1to100), dilution row 3,200, duplicate wells
  ELISA plate reading of serum: 0.148 and 0.110
[1]; bleed 2Y + 1, (1to100)
  Immunogenicity (titers) 1′ Conc. 1:: 6400
[1]; bleed 2Y + 1, (1to100), dilution 800, duplicate wells, bleed 2Y + 1
  ELISA plate reading of serum: 1.118 and 1.079
[1]; bleed 2Y + 1, (1to100), dilution 1,600, duplicate wells, bleed 2Y + 1
  ELISA plate reading of serum: 0.819 and 0.774
[1]; bleed 2Y + 1, (1to100), dilution 6,400, duplicate wells, bleed 2Y + 1
  ELISA plate reading of serum: 0.311 and 0.286
[1]; bleed 2Y + 1, (1to100), dilution 12,800, duplicate wells, bleed 2Y + 1
  ELISA plate reading of serum: 0.175 and 0.162
[1]; bleed 2Y + 1, (1to100), dilution row 100, duplicate wells, bleed 2Y + 1
  ELISA plate reading of serum: 1.606 and 1.563
[1]; bleed 2Y + 1, (1to100), dilution row 200, duplicate wells, bleed 2Y + 1
  ELISA plate reading of serum: 1.477 and 1.479
[1]; bleed 2Y + 1, (1to100), dilution row 400, duplicate wells, bleed 2Y + 1
  ELISA plate reading of serum: 1.378 and 1.347
[1]; bleed 2Y + 1, (1to100), dilution row 3,200, duplicate wells, bleed 2Y + 1
  ELISA plate reading of serum: 0.516 and 0.492
[1]; bleed 2Y + 2, (1to1k)
  Immunogenicity (titers) 1′ Conc. 1:: 16000
[1]; bleed 2Y + 2, (1to1k), dilution 800, duplicate wells
  ELISA plate reading of serum: 0.407 and 0.427
[1]; bleed 2Y + 2, (1to1k), dilution 1,600, duplicate wells
  ELISA plate reading of serum: 0.280 and 0.257
[1]; bleed 2Y + 2, (1to1k), dilution 6,400, duplicate wells
  ELISA plate reading of serum: 0.064 and 0.061
[1]; bleed 2Y + 2, (1to1k), dilution row 100, duplicate wells
  ELISA plate reading of serum: 1.476 and 1.437
[1]; bleed 2Y + 2, (1to1k), dilution row 200, duplicate wells
  ELISA plate reading of serum: 1.131 and 1.086
[1]; bleed 2Y + 2, (1to1k), dilution row 400, duplicate wells
  ELISA plate reading of serum: 0.767 and 0.735
[1]; bleed 2Y + 2, (1to1k), dilution row 3,200, duplicate wells
  ELISA plate reading of serum: 0.145 and 0.132
[1]; bleed 2Y + 3, (1to1k)
  Immunogenicity (titers) 1′ Conc. 1:: 64000
[1]; bleed 2Y + 3, (1to1k), dilution 800, duplicate wells
  ELISA plate reading of serum: 1.024 and 0.946
[1]; bleed 2Y + 3, (1to1k), dilution 1,600, duplicate wells
  ELISA plate reading of serum: 0.699 and 0.615
[1]; bleed 2Y + 3, (1to1k), dilution 6,400, duplicate wells
  ELISA plate reading of serum: 0.246 and 0.233
[1]; bleed 2Y + 3, (1to1k), dilution row 100, duplicate wells
  ELISA plate reading of serum: 1.711 and 1.644
[1]; bleed 2Y + 3, (1to1k), dilution row 200, duplicate wells
  ELISA plate reading of serum: 1.518 and 1.488
[1]; bleed 2Y + 3, (1to1k), dilution row 400, duplicate wells
  ELISA plate reading of serum: 1.317 and 1.263
[1]; bleed 2Y + 3, (1to1k), dilution row 3,200, duplicate wells
  ELISA plate reading of serum: 0.435 and 0.430
[1]; bleed 3Y + 1, (1to1k)
  Immunogenicity (titers) 1′ Conc. 1:: 64000
[1]; bleed 3Y + 1, (1to1k), dilution 800, duplicate wells, bleed 3Y + 1
  ELISA plate reading of serum: 1.176 and 1.158
[1]; bleed 3Y + 1, (1to1k), dilution 1,600, duplicate wells, bleed 3Y + 1
  ELISA plate reading of serum: 0.801 and 0.729
[1]; bleed 3Y + 1, (1to1k), dilution 6,400, duplicate wells, bleed 3Y + 1
  ELISA plate reading of serum: 0.219 and 0.206
[1]; bleed 3Y + 1, (1to1k), dilution row 100, duplicate wells, bleed 3Y + 1
  ELISA plate reading of serum: 1.928 and 1.945
[1]; bleed 3Y + 1, (1to1k), dilution row 200, duplicate wells, bleed 3Y + 1
  ELISA plate reading of serum: 1.823 and 1.707
[1]; bleed 3Y + 1, (1to1k), dilution row 400, duplicate wells, bleed 3Y + 1
  ELISA plate reading of serum: 1.516 and 1.458
[1]; bleed 3Y + 1, (1to1k), dilution row 3,200, duplicate wells, bleed 3Y + 1
  ELISA plate reading of serum: 0.438 and 0.427
[1]; bleed 3Y + 2, (1to1k)
  Immunogenicity (titers) 1′ Conc. 1:: 64000
[1]; bleed 3Y + 2, (1to1k), dilution 800, duplicate wells, bleed 3Y + 2
  ELISA plate reading of serum: 1.412 and 1.389
[1]; bleed 3Y + 2, (1to1k), dilution 1,600, duplicate wells, bleed 3Y + 2
  ELISA plate reading of serum: 0.961 and 0.874
[1]; bleed 3Y + 2, (1to1k), dilution 6,400, duplicate wells, bleed 3Y + 2
  ELISA plate reading of serum: 0.262
[1]; bleed 3Y + 2, (1to1k), dilution row 100, duplicate wells, bleed 3Y + 2
  ELISA plate reading of serum: 2.313 and 2.334
[1]; bleed 3Y + 2, (1to1k), dilution row 200, duplicate wells, bleed 3Y + 2
  ELISA plate reading of serum: 2.188 and 2.048
[1]; bleed 3Y + 2, (1to1k), dilution row 400, duplicate wells, bleed 3Y + 2
  ELISA plate reading of serum: 1.819 and 1.749
[1]; bleed 3Y + 2, (1to1k), dilution row 3,200, duplicate wells, bleed 3Y + 2
  ELISA plate reading of serum: 0.526 and 0.512
[1]; bleed 3Y + 3, (1to1k)
  Immunogenicity (titers) 1′ Conc. 1:: 64000
[1]; bleed 3Y + 3, (1to1k), dilution 800, duplicate wells
  ELISA plate reading of serum: 1.445 and 1.468
[1]; bleed 3Y + 3, (1to1k), dilution 1,600, duplicate wells
  ELISA plate reading of serum: 0.909 and 0.999
[1]; bleed 3Y + 3, (1to1k), dilution 6,400, duplicate wells
  ELISA plate reading of serum: 0.257
[1]; bleed 3Y + 3, (1to1k), dilution row 100, duplicate wells
  ELISA plate reading of serum: 2.427 and 2.406
[1]; bleed 3Y + 3, (1to1k), dilution row 200, duplicate wells
  ELISA plate reading of serum: 2.130 and 2.275
[1]; bleed 3Y + 3, (1to1k), dilution row 400, duplicate wells
  ELISA plate reading of serum: 1.819 and 1.892
[1]; bleed 3Y + 3, (1to1k), dilution row 3,200, duplicate wells
  ELISA plate reading of serum: 0.532 and 0.547
[2]
  blocking of PD-1/PD-L1 interaction: able to inhibit PD-1/PD-L1

## KLLSLIKGVIVHRLEGVEGPSLYRCMISYGGADYKRITVK (KLLSLIKGVIVHRLEGVEGPSLYRCMISYGGADYKRITVK-NH2) [PD-L1(95)]
[1]; Balb/c mice, bleed 1Y + 3
  Immunogenicity (titers) 1′ Conc. 1:: 100
[1]; Balb/c mice, bleed 2Y + 1
  Immunogenicity (titers) 1′ Conc. 1:: 12800
[1]; Balb/c mice, bleed 2Y + 2
  Immunogenicity (titers) 1′ Conc. 1:: 64000
[1]; Balb/c mice, bleed 2Y + 3
  Immunogenicity (titers) 1′ Conc. 1:: 64000
[1]; Balb/c mice, bleed 3Y + 1
  Immunogenicity (titers) 1′ Conc. 1:: 128000
[1]; Balb/c mice, bleed 3Y + 2
  Immunogenicity (titers) 1′ Conc. 1:: 128000
[1]; Balb/c mice, bleed 3Y + 3
  Immunogenicity (titers) 1′ Conc. 1:: 128000
[2]
  blocking of PD-1/PD-L1 interaction: unable to block PD-1 and PD-L1
